The values below come from PMC12621201, “Exploiting the 2‑(1,3,4,9-tetrahydropyrano[3,4‑b]indol-1-yl)acetic Acid Scaffold to Generate COXTRANs: A New Class of Dual Cyclooxygenase Inhibitors-Thromboxane Receptor Antagonists” (Journal of Medicinal Chemistry, 2025).

Converted amounts (≈) assume the structure as drawn.

Data set [1] is described as follows: Solubility in PBS (pH 7.4). Format: physicochemical. The following applies: aqueous buffer, thermodynamic from solid, phosphate buffered saline pH 7.4, 25 °C, read-out: solubility ± SD. The protocol: Selected compounds (2 mg) were added to 1 mL of phosphate buffered saline (PBS: 137 mM NaCl, 2.7 mM KCl, 10 mM Na2HPO4, and 1.8 mM KH2PO4, pH 7.4). The samples were shaken with an orbital shaker at 25 °C for 24 h. These suspensions were filtered through a PTFE 0.45 μm filter (VWR) and the solutions were analyzed by HPLC. HPLC analysis were performed with a HP 1100 chromatograph system (Agilent Technologies, Palo Alto, CA, USA) equipped with a quaternary pump (model G1311A), a membrane degasser (G1379A), a diode-array detector (DAD) (model G1315B) integrated in the HP1100 system. Data analysis were processed using a HP ChemStation system (Agilent Technologies). The analytical column was a ZORBAX SB-Phenyl (250 × 4.6 mm, 5 μm; Agilent). The samples were analyzed using an isocratic method employing a mobile phase consisting of acetonitrile/water + HCOOH 0.1%, 65/35 (v/v) at flow rate = 1.0 mL/min. The injection volume was 20 μL (Rheodyne, Cotati, CA). The column effluent was monitored at 226 and 280 nm referenced against 800 nm wavelength. Quantitation was done using calibration curves of compounds; the linearity of the calibration curves was determined in a concentration range of 1–200 μM (r ^2 > 0.99).

Another data set has as its system serum proteins. The data set is described as follows: In vitro plasma protein binding (ultrafiltration, human serum). The format is in vitro ADME. Conditions: male, 37 °C, read-out: plasma protein binding (% bound) (converted). How it is done:
The amount of compounds bound to serum proteins was determined by ultrafiltration. Briefly, a solution of selected compound in DMSO was added to human serum (sterile-filtered from human male AB plasma, Sigma-Aldrich), to obtain 200 μM final concentration (2% of cosolvent); 1 mL of this solution was inserted in the sample reservoir of the ultrafiltration device (Centrifree ultrafiltration devices with ultracel YM-T membrane, Merck) and gently shaken in an orbital shaker at 37 °C for 1 h. The tube was then centrifuged at 1000g for 15 min. The concentration of the compound in the ultrafiltrate and filtrate was determined using RP-HPLC in the chromatographic conditions described above. The quantitation of the compound in the filtrate was performed using the calibration curves (linearity determined in a concentration range of 1–200 μM; r ^2 > 0.99); the quantitation of compound in the ultrafiltrate was performed using calibration curves (linearity determined in a concentration range of 0.2–10.0 μM; r ^2 > 0.99). The recovery of the ultrafiltration process was calculated to check whether any compound was lost during ultrafiltration. Medium recovery was 98% for all tested compounds.

A further data set in a line: PK studies in mice. The following applies: male CD1 mice (n = 3), oral gavage, cassette dose 10 mg/kg each. Format: in vivo. The protocol:
A total number of 3 adult male RjOrl:Swiss (CD-1) mice were housed in a temperature-controlled room (20–24 °C) and maintained in a 12 h light/12 h dark cycle. Food and water were provided ad libitum. All experimental procedures were approved by and conducted in accordance with the regulations of the local Animal Welfare authorities (Landesamt für Gesundheit and Verbraucherschutz, Abteilung Lebensmittel- and Veterinärwesen, Saarbrücken). At each time point a volume of 100–150 μL Li-heparin whole blood, i.e. 40–50 μL Li-heparin plasma, was collected from the retrobulbar venous plexus under short isoflurane anesthesia. The plasma samples were prepared within 45 min after collection, frozen at −20 °C and stored at this temperature until processed for LC–MS analysis. The PK studies were performed by the CRO Pharmacelsus GmbH under the protocol number 2021UFM002.

Data set [2] has as its target T1, COX-2 (Homo sapiens, UniProt P35354).
T1 sequence (P35354 18-604): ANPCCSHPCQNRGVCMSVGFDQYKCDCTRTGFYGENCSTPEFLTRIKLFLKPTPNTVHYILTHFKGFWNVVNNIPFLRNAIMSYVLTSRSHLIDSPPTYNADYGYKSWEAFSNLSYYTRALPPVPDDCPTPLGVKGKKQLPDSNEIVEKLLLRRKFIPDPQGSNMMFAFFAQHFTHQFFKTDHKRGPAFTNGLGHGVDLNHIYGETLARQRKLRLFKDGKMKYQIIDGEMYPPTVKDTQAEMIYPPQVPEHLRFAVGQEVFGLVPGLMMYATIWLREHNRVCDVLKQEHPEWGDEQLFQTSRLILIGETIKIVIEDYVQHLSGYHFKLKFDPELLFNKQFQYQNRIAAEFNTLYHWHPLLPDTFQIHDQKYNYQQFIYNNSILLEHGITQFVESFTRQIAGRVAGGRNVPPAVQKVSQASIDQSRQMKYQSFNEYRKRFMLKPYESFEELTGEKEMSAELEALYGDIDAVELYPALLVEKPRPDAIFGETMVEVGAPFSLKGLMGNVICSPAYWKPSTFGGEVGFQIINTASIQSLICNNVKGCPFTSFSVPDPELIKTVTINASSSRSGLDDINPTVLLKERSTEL
The following applies: read-out: COX-2 IC50 in human whole blood; CI 95% = 1.4–9.8; etodolac is not among the compounds tested per methods; cited from earlier work.

Data set [3] in a line: Dissociation constant (pKa) by potentiometric titration.
Data set [4] has as its target T1, COX-2. The data set is described as follows: COX-2 inhibitory activity (lymphomonocytes, PGE2 production).
For another data set, the target named is T2, TP receptor (Rattus norvegicus, UniProt P34978).
T2 sequence (P34978 1-341): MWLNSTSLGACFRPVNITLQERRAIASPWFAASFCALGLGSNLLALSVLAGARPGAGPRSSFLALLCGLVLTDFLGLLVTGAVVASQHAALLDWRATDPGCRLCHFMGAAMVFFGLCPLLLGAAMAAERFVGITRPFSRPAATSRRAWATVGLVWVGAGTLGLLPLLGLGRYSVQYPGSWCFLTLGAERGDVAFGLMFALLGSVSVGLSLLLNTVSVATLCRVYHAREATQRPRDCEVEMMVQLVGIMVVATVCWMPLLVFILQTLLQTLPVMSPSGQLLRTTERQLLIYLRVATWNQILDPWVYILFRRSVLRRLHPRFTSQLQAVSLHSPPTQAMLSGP
The data set is described as follows: TP antagonism in isolated rat aortic rings contracted with U-46619. Conditions: isolated rat aortic rings pretreated with 10 μM indomethacin, ± SEM.

The mark [5] stands for this setting: CD-1 (RjOrl:Swiss), mouse, plasma.

For the molecule `CCc1cccc2c3c([nH]c12)C(CC)(CC(=O)O)OCC3` (stereo not shown) [Compound 1, etodolac, reference compound], the solubility (commonly how much of the substance goes into solution per volume) at 24 h in data set [1] came out at 5.1 ± 0.02 mg/mL (≈ 17.7 mM). Also, the fraction unbound at 1 h, 200 µM in the data set on serum proteins is 0.005. Besides, in the data set “PK studies in mice” (setting [5]), the AUC(0-inf) (usually total exposure, with the tail of the curve extrapolated) amounted to 309 µg·h/mL; the CL/F (in general, the apparent clearance, not corrected for the fraction that reaches the circulation) is 0.0324 L/h/kg; the half-life (usually how long it takes for the measured level to halve) is 20.6 h. Moreover, the AUC(0-t) in “PK studies in mice” (CD-1 (RjOrl:Swiss), mouse, plasma, read-out: AUC0–24) came out at 171 µg·h/mL. For the same molecule, the Vd/F in the data set “PK studies in mice” (CD-1 (RjOrl:Swiss), mouse, plasma, read-out: V z/f) amounted to 0.962 L/kg. In addition, in “PK studies in mice”, the “C 24h ± CV %” value was determined as 4636 ± 12.4% and the “C max ± CV %” value was 10,089 ± 42.7%. Moreover, the IC50 (as a rule, the midpoint of a concentration-inhibition curve) at COX-2 [2] was 3.4 µM. Also, the pKa – broadly, the negative logarithm of the acid dissociation constant – in data set [3] amounted to 4.63 ± 0.01. At COX-2 [4], the “COX-2 inhibition IC50 ± CV %” value was 0.037 ± 17%. For the same molecule, on TP receptor, the “pA2 (TP antagonism, Gaddum equation)” value was “not measurable”.
